Measured values: patent US20220226340A1, “CASEIN KINASE 1 INHIBITORS FOR USE IN THE TREATMENT OF DISEASES RELATED TO DUX4 EXPRESSION SUCH AS MUSCULAR DYSTROPHY AND CANCER” (Facio Intellectual Property B.V., priority 2019, published 2022)
Where two headings read alike, the source gives them in different places.

Assays:
primary FSHD cells = experiment: fusion index (myotube fusion) readout of the high-content assay in primary FSHD cells; format: cell-based, human; settings: for effect on fusion index / myotube fusion: 72 h treatment, compound present during whole differentiation
Description: (§1) A quantitative assay readout was developed based on script-based image analysis. […] To analyse the images, an automated script was developed, enabling the detection of nuclei, myotube borders and DUX4 signals, with the script also detecting artefacts to reduce false positive signals. The script enabled multiple validated readouts including the number of DUX4 positive nuclei and nuclei clusters, the fusion index, myotube area, myotube width and myotube skeleton length (see FIG. 2). Additionally, the total nuclei count was included as a measure of cell loss or compound toxicity.
(§2) Compounds are administered either 15 h before fixation, resembling the original screening protocol, or 72 h before fixation (grey arrow). In the latter case, compounds are present during the whole differentiation process.

CK1α = CK1α (Homo sapiens, UniProt P48729); experiment: CK1α inhibition IC50; format: biochemical
p38α = p38α (Homo sapiens, UniProt Q16539); experiment: p38α inhibition IC50; format: biochemical
CK1δ = CK1δ (Homo sapiens, UniProt P48730); experiment: CK1δ inhibition IC50; format: biochemical
DUX4 = experiment: high-content immunocytochemistry assay of endogenous DUX4 expression in differentiating primary FSHD myotubes; format: cell-based, human; settings: for EC50: Homo sapiens, Myotube
Description: as §1
A compound library containing approximately 5000 annotated compounds was screened in the high-content assay. For this purpose, primary myoblasts were seeded in 384 well plates after which the growth medium was replaced with differentiation medium. After 3 days of differentiation, cells were treated with library compounds (in duplicate on different screening plates) for 15 h, after which they were fixed and stained with antibodies against DUX4, antibodies against myosin heavy chain (MHC), and with DAPI (4′,6-diamidino-2-phenylindole). Script-based analysis provided readouts for DUX4 expression (count of DUX4-positive nuclei or DUX4 intensity) and for potential toxicity (fusion index and nuclei count).
Compounds were incubated with primary FSHD cells for 15 hours, as indicated by the arrow in FIG. 4A.
as §2

CK1ε = CK1ε (Homo sapiens, UniProt P49674); experiment: CK1ε inhibition IC50; format: biochemical
[1] = Table 7, p38 compounds, read-out: IC50 CK1a
[2] = Table 7, p38 compounds, read-out: IC50 p38
[3] = 72 h, Table 4, 72 h treatment protocol, read-out: DUX4 EC50
[4] = 72 h, Table 6, 72 h treatment protocol, read-out: DUX4 EC50
[5] = 15 h, read-out: EC50 for DUX4 repression

Sequence of p38α (Q16539 whole entry): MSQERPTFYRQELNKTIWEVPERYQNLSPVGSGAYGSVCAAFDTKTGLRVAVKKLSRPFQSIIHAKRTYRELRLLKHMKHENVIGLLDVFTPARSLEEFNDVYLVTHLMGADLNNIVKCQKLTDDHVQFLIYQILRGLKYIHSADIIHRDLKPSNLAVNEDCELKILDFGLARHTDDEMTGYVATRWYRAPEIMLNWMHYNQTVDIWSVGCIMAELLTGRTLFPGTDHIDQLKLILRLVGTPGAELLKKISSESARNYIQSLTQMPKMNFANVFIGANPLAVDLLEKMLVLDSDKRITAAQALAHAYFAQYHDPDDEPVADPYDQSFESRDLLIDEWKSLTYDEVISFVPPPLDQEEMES
Sequence of CK1ε (P49674 whole entry): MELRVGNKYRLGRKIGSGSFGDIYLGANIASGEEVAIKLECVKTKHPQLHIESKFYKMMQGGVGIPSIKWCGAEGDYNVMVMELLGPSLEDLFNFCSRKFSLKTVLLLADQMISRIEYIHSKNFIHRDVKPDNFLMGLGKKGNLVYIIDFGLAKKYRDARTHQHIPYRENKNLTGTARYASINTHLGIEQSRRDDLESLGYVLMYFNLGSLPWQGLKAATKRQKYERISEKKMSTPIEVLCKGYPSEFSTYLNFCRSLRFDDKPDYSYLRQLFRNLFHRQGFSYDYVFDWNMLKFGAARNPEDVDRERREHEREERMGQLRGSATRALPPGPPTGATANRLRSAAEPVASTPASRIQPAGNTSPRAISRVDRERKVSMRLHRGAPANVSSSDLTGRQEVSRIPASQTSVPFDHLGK
Sequence of CK1α (P48729 whole entry): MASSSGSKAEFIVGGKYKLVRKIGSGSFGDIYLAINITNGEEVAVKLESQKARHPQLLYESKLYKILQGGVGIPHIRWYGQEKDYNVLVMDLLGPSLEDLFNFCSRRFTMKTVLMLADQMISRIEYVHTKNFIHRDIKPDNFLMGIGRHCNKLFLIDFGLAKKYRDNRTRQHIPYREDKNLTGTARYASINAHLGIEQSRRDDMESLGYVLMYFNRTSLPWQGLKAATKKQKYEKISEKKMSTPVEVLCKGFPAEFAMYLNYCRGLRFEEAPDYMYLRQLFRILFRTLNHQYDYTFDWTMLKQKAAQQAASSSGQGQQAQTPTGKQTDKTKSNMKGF
Sequence of CK1δ (P48730 whole entry): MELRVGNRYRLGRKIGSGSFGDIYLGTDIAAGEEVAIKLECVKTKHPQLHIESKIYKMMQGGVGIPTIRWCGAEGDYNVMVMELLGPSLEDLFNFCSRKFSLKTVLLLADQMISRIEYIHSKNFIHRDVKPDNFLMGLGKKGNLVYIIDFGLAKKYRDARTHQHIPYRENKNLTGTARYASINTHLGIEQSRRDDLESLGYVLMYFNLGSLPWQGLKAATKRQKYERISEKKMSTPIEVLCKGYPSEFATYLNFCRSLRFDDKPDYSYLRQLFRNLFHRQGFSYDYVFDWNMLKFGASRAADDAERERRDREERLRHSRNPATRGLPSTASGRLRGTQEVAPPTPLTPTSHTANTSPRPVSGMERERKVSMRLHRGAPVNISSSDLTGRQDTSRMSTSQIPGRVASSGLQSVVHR

Cc1ccc(C(=O)NC2CC2)cc1-n1ncc(C(=O)c2cccc(C#N)c2)c1N [Acumapimod, reference compound]
effect on fusion index / myotube fusion (primary FSHD cells): inhibited the fusion index
IC50 (CK1α; [1]): > 10000 nM
IC50 (p38α; [2]): 22 nM

CCCNC(=O)c1cn2ncnc(Nc3cc(C(=O)NC4CC4)ccc3C)c2c1C [BMS-582949, reference compound]
IC50 (CK1α; [1]): > 10000 nM

CC(C)(C)Cn1c(N)nc2ccc(-c3[nH]c(C(C)(C)C)nc3-c3ccc(F)cc3)nc21 [LY2228820, reference compound]
effect on fusion index / myotube fusion (primary FSHD cells): inhibited the fusion index
IC50 (CK1α; [1]): > 10000 nM
IC50 (CK1δ; Table 7, p38 compounds, read-out: IC50 CK1d): 2780 nM
IC50 (p38α; [2]): 14 nM

Cc1c(F)cc(C(=O)NC2CC2)cc1-c1ccc(C(=O)NCC(C)(C)C)cn1 [Losmapimod, reference compound]
effect on DUX4 (DUX4; added during the last 15 h of differentiation): did not show any effect
IC50 (CK1α; [1]): > 10000 nM

CC1(C)CN(c2ccc3nc(-c4ccc(F)cc4)c(-c4ccncc4)n3n2)CCN1 [Nr. 1]
EC50 (DUX4; 15 h, Table 3, 15 h treatment protocol, primary FSHD cells, read-out: EC50 for DUX4 repression): 40 nM
EC50 (DUX4; [3]): 40 nM
EC50 (DUX4; [4]): 40 nM
IC50 (CK1α; Table 3, read-out: CK1 a IC50): 29.5 nM
IC50 (CK1α; Table 4, read-out: CK1 a IC50): 29.5 nM
IC50 (CK1α; Table 6, read-out: IC50 CK1α): 29 nM
IC50 (CK1ε; Table 3, read-out: CK1 e IC50): 12.4 nM
IC50 (CK1ε; Table 4, read-out: CK1 e IC50): 12.4 nM
IC50 (CK1δ; Table 3, read-out: CK1 d IC50): 18.5 nM
IC50 (CK1δ; Table 4, read-out: CK1 d IC50): 18.5 nM
IC50 (CK1δ; Table 6, read-out: IC50 CK1δ): 18 nM
IC50 (p38α; Table 3, read-out: p38a IC50): 13.2 nM
IC50 (p38α; Table 4, read-out: p38a IC50): 13.2 nM

CN1CCN(c2ccc3nc(-c4ccc(F)cc4)c(-c4ccncc4)n3n2)CC1 [Nr. 2]
EC50 (DUX4; [3]): 340 nM
EC50 (DUX4; [4]): 340 nM
IC50 (CK1α; Table 4, read-out: CK1 a IC50): 65 nM
IC50 (CK1α; Table 6, read-out: IC50 CK1α): 65 nM
IC50 (CK1δ; Table 4, read-out: CK1 d IC50): 29 nM
IC50 (CK1δ; Table 6, read-out: IC50 CK1δ): 29 nM
IC50 (p38α; Table 4, read-out: p38a IC50): 23 nM
IC50 (p38α; Table 6, read-out: IC50 p38α): 23 nM

CN1Cc2nccc(-c3cn(C)nc3-c3ccc(F)cc3)c2C1=O [Nr. 5]
myotube formation in the presence of increasing concentrations of losmapimod (primary FSHD cells; 72 h, CK1 inhibitor combined with losmapimod, microscopic images): myotube formation is still intact
EC50 (DUX4; 15 h, read-out: DUX4 EC50): 1890 nM
EC50 (DUX4; [5]): 1900 to 3100 nM
EC50 (DUX4; 72 h, read-out: DUX4 EC50): 6700 nM

Cn1cc(-c2ccnc3c2C(=O)N(C2CCOCC2)C3)c(-c2ccc(F)cc2)n1 [Nr. 6]
EC50 (DUX4; [3]): 8100 nM
EC50 (DUX4; [4]): 8100 nM
IC50 (CK1ε; Table 3, read-out: CK1 e IC50): 72.4 nM
IC50 (CK1ε; Table 4, read-out: CK1 e IC50): 72.4 nM

COCCN1Cc2nccc(-c3cn(C)nc3-c3ccc(F)cc3)c2C1=O [Nr. 7]
EC50 (DUX4; [3]): 5000 nM
EC50 (DUX4; [4]): 5000 nM
IC50 (CK1ε; Table 6, read-out: IC50 CK1ε): 92 nM
IC50 (CK1δ; Table 6, read-out: IC50 CK1δ): 42 nM

CNCc1cc(-c2cn(C)nc2-c2ccc(F)cc2)ccn1 [Nr. 9]
EC50 (DUX4; [5]): 3100 to 5500 nM
EC50 (DUX4; 72 h, read-out: DUX4 EC50): 6400 nM
IC50 (CK1δ; Table 6, read-out: IC50 CK1δ): 58 nM

CC1(C)CN(c2ccc3nc(-c4ccccc4)c(-c4ccncc4)n3n2)CCN1 [Nr. 10]
EC50 (DUX4; [3]): 10 nM
EC50 (DUX4; [4]): 10 nM

CN1CCN(c2ccc3nc(-c4ccccc4)c(-c4ccncc4)n3n2)CC1 [Nr. 11]
EC50 (DUX4; [3]): 250 nM
EC50 (DUX4; [4]): 250 nM

c1ccc(-c2nc3ccc(N4CCNCC4)nn3c2-c2ccncc2)cc1 [Nr. 12]
EC50 (DUX4; [3]): 50 nM
EC50 (DUX4; [4]): 50 nM

c1ccc(-c2nc3ccc(N4CCC(N5CCCC5)CC4)nn3c2-c2ccncc2)cc1 [Nr. 13]
EC50 (DUX4; [3]): 310 nM
EC50 (DUX4; [4]): 310 nM

Fc1ccc(-c2nc3ccc(N4CCC(N5CCCC5)CC4)nn3c2-c2ccncc2)cc1 [Nr. 14]
EC50 (DUX4; [3]): 390 nM
EC50 (DUX4; [4]): 390 nM
IC50 (CK1α; Table 4, read-out: CK1 a IC50): 270 nM
IC50 (CK1α; Table 6, read-out: IC50 CK1α): 270 nM
IC50 (CK1δ; Table 4, read-out: CK1 d IC50): 45 nM
IC50 (CK1δ; Table 6, read-out: IC50 CK1δ): 45 nM
IC50 (p38α; Table 4, read-out: p38a IC50): 42 nM
IC50 (p38α; Table 6, read-out: IC50 p38α): 42 nM

Cn1cc(-c2ccnc3[nH]ccc23)c(-c2ccc(F)cc2)n1 [Nr. 16]
EC50 (DUX4; [3]): 1200 nM
EC50 (DUX4; [4]): 1200 nM
IC50 (CK1α; Table 4, read-out: CK1 a IC50): 196 nM
IC50 (CK1α; Table 6, read-out: IC50 CK1α): 196 nM
IC50 (CK1δ; Table 4, read-out: CK1 d IC50): 16.9 nM
IC50 (CK1δ; Table 6, read-out: IC50 CK1δ): 17 nM
IC50 (p38α; IC50 p38α, Table 6): 18 nM
IC50 (p38α; p38a IC50, Table 4): 17.9 nM

Cn1cc(-c2ccncc2)c(-c2ccc(F)cc2)n1 [Nr. 17]
EC50 (DUX4; [3]): 2900 nM
EC50 (DUX4; [4]): 2900 nM
IC50 (CK1α; Table 4, read-out: CK1 a IC50): 873 nM
IC50 (CK1α; Table 6, read-out: IC50 CK1α): 873 nM
IC50 (CK1δ; Table 4, read-out: CK1 d IC50): 36.1 nM
IC50 (CK1δ; Table 6, read-out: IC50 CK1δ): 36 nM
IC50 (p38α; Table 4, read-out: p38a IC50): 63.2 nM
IC50 (p38α; Table 6, read-out: IC50 p38α): 63 nM
